For one data set, the system named is nicotine lethality. Description: Inhibition of nicotine spasm / nicotine lethality. The format is in vivo, mice. Conditions: for ED50: Mus musculus, read-out: Inhibition of nicotine lethality ED50; for Therapeutical index (inhibition of nicotine lethality): LD50 and ED50 nicotine lethality. Here is the method:
(5) Inhibition of nicotine spasm
The test is carried out on mice according to Stone.

Another data set is described as follows: in vivo. Conditions: mouse, mice, 7 days observation, Litchfield-Wilcoxon. The method, then: (1) Acute toxicity on mice
The acute toxicity is determined on mice of both sex (CFLP breed, body weight 18 to 22 g). For each dosis 6 animals are employed. The compounds tested are administered orally in a volume of 20 ml/kg body weight. After the administration the animals are observed for 7 days. During this period the animals are fed with standard mouse feed and water ad libitum. The toxicity values are determined according to Litchfield-Wilcoxon's method.

The subject of another data set is Tetrabenazine ptosis. Description: animal or person. The class given is in vivo. The method, then: (2) Tetrabenazine ptosis antagonism on mice
The tetrabenazine ptosis antagonism of the compounds are tested on groups consisting of 10 mice each. […] 30 minutes after the introduction of the active agent or the vehicle, 50 mg/kg of tetrabenazine (3-isobutyl-9,10-[…]-1,2,3,4,6,7-hexahydrobenzo[a]quinolizine-2-one) are administered, intraperitoneally, and the animals with ptosis are counted 30, 60, 90 and 120 minutes after the administration of the tetrabenazine.
Evaluation: the average ptosis value is calculated in each group, and the deviation from the average obtained for the control group (inhibition) is given in percentage. From the data obtained ED50 values are calculated.

For a further data set, the system named is intestinal peristalsis. The experiment in a line: animal or person. The class given is in vivo. Conditions: for Therapeutical index (inhibition of intestinal peristalsis): LD50 and ED50 intestinal peristalsis, mice; for ED50: Mus musculus, po, read-out: Inhibition of intestinal peristalsis ED50. The method, then: (8) Antiperistaltic effect on mice
The antiperistaltic effect of the compounds is examined on mice weighing 20 to 25 g according to the method of Stickney and co-workers. Each dosis of the compound to be tested is administered, orally, 60 minutes prior to the administration of a 10 percent carbon suspension. […] 20 minutes after the administration of the carbon suspension, the animals are sacrificed, and the length of the entire small intestine as well as that of the small intestine filled with carbon are determined. The inhibition in relation to the control is calculated in percentage. […] From the values thus-transformed ED50 values are calculated.

The subject of another data set is acetic acid writhing. The experiment in a line: animal or person. Particulars: for Therapeutical index (analgesic effect, writhing test): LD50 and ED50 writhing test, mice; for ED50: Mus musculus, ip, read-out: Analgesic effect (writhing test) ED50. The format is in vivo. Here is the method: (9) Analgesic effect on mice (writhing test)
The test is carried out on mice according to the modified method of Newbould. 0.75 percent acetic acid is administered to the animals in a volume of 20 ml/kg, intraperitoneally, and the characteristic "writhing reactions" are counted for a period of 5 minutes, starting from the fifth minute after challenge. […] The inhibition relative to the control group is evaluated in percentage.

Another data set has as its system pentatetrazole spasm. The experiment in a line: animal or person. The class given is in vivo. Here is the method:
(6) Inhibition of pentatetrazole spasm
The test is performed on mice according to a modified method of Banziger and Hane.

Setting [1] is: mice, oral, 1 hour before 1.4 mg/kg i.v. nicotine.

Read-outs that look alike come from different tables or passages of the source.

Experimental findings from US4665083A, “Iminothiazolidine derivatives” (priority 1984, dated 1987) are described below.

As for `OC(CCN1CCCCC1)(c1ccccc1)C1CCCCC1` (stereo not shown) [Trihexyphenidyl, reference compound], the ED50 (usually the dose that gives a 50% effect, or the effect in half of the subjects) in the data set with nicotine lethality (setting [1]) turned out to be 40 mg/kg.

`COc1ccc(N2CCSC2=N)c(N)c1.Cl.Cl` [Compound 7, 3-(2-amino-4-methoxyphenyl)-2-iminothiazolidine dihydrochloride]: the LD50 (commonly the dose at which mortality reaches 50%) at 168 h in the data set “in vivo” (po) is 1200 mg/kg. In addition, in the data set with Tetrabenazine ptosis (LD50 and ED50 tetrabenazine ptosis, mice), the “Therapeutical index (tetrabenazine ptosis antagonism)” value is given as 75. The ED50 in the data set with Tetrabenazine ptosis (Mus musculus, po, read-out: Tetrabenazine ptosis antagonism ED50) stood at 16 mg/kg.

`Cl.N=C1SCCN1c1ccc(C(F)(F)F)cc1[N+](=O)[O-]` [Compound 6, 3-(2-nitro-4-trifluoromethylphenyl)-2-iminothiazolidine hydrochloride] yielded an LD50 at 168 h in the data set “in vivo” (po) of 800 mg/kg. For the same compound, in the data set on intestinal peristalsis, the “Therapeutical index (inhibition of intestinal peristalsis)” value was 100 and the ED50 stood at 8 mg/kg.

As to `N=C1SCCN1c1ccc(C(F)(F)F)cc1N` [Compound 4 (diethanesulfonate)], in the data set with intestinal peristalsis, the “Therapeutical index (inhibition of intestinal peristalsis)” value is 52 and the ED50 was 25 mg/kg. In addition, in the data set with acetic acid writhing, the “Therapeutical index (analgesic effect, writhing test)” value stood at 8.1 and the ED50 was 160 mg/kg.

Regarding `CC(=O)Nc1ccc(O)cc1` [Paracetamol, reference compound], in the data set with acetic acid writhing, the ED50 was 180 mg/kg.

Take `N=C1SCCN1c1ccccc1[N+](=O)[O-]` [Compound 10, 3-(2-nitrophenyl)-2-iminothiazolidine]: the LD50 at 168 h in “in vivo” (po) was 700 mg/kg. Further, the “Therapeutical index (inhibition of nicotine lethality)” value in the data set with nicotine lethality (mice) is listed as 24. Besides, the ED50 in the data set with nicotine lethality (po) is 50 mg/kg. In the data set on intestinal peristalsis, the “Therapeutical index (inhibition of intestinal peristalsis)” value is given as 5 and the ED50 came to 140 mg/kg. Further, in the data set on acetic acid writhing, the “Therapeutical index (analgesic effect, writhing test)” value stood at 17.5 and the ED50 was 40 mg/kg.

Compound `Cl.N=C1SCCN1c1ccc(Cl)cc1[N+](=O)[O-]` [Compound 5, 3-(4-chloro-2-nitrophenyl)-2-iminothiazolidine hydrochloride] showed an LD50 at 168 h in “in vivo” (po) of 1100 mg/kg. Also, the “Therapeutical index (inhibition of nicotine lethality)” value with nicotine lethality (mice) was 122. The ED50 in the data set on nicotine lethality (setting [1]) was 9 mg/kg; in the data set on pentatetrazole spasm (Mus musculus, po, read-out: Inhibition of pentatetrazole spasm ED50), 66 mg/kg. Also, the “Therapeutical index (inhibition of pentatetrazole spasm)” value in the data set on pentatetrazole spasm (LD50 and ED50 pentatetrazole spasm, mice) amounted to 16.6.

In the data set “in vivo” (po), `CCS(=O)(=O)O.CCS(=O)(=O)O.COc1ccc(N2CCSC2=N)c(N)c1` [Compound 7 (diethanesulfonate), 2-imino-3-(2'-amino-4'-methoxyphenyl)-thiazolidine di(ethanesulfonate)] registered an LD50 at 168 h of 2000 mg/kg. In the data set on intestinal peristalsis, the “Therapeutical index (inhibition of intestinal peristalsis)” value amounted to 10 and the ED50 came to 200 mg/kg.

Regarding `N=C1SCCN1c1cc(Cl)ccc1[N+](=O)[O-]` [Compound 9, 3-(5-chloro-2-nitrophenyl)-2-iminothiazolidine], the LD50 at 168 h in the data set “in vivo” (po) was 700 mg/kg. Moreover, in the data set on intestinal peristalsis, the “Therapeutical index (inhibition of intestinal peristalsis)” value is on record as 38.9 and the ED50 is 18 mg/kg. For the same compound, in the data set on acetic acid writhing, the “Therapeutical index (analgesic effect, writhing test)” value is given as 13 and the ED50 is 54 mg/kg.

Turning to `COc1ccc(Cc2nccc3cc(OC)c(OC)cc23)cc1OC` [Papaverine, reference compound], the LD50 at 168 h in “in vivo” (oral) was 380 mg/kg. Besides, in the data set on intestinal peristalsis, the “Therapeutical index (inhibition of intestinal peristalsis)” value stood at 2.01 and the ED50 is 185 mg/kg.

In the data set “in vivo” (po), `N=C1SCCN1c1ccc(N)cc1[N+](=O)[O-]` [Compound 15, 3-(4-amino-2-nitrophenyl)-2-iminothiazolidine] yielded an LD50 at 168 h of 1200 mg/kg. In the data set with intestinal peristalsis, the “Therapeutical index (inhibition of intestinal peristalsis)” value was found to be 12 and the ED50 was 130 mg/kg. In addition, in the data set on acetic acid writhing, the “Therapeutical index (analgesic effect, writhing test)” value came to 10.4 and the ED50 is 115 mg/kg.
